Assay results as given in ChEMBL document CHEMBL5634096, “Design, synthesis and bioevaluation of PI3Kα-selective inhibitors as potential colorectal cancer drugs” (Eur J Med Chem, 2023).
The source made the active and inactive calls. The rule behind the calls is not given here.

How the values were obtained:
[1] = target: Phosphatidylinositol 4,5-bisphosphate 3-kinase catalytic subunit alpha isoform (Homo sapiens, UniProt P42336); assay: Inhibition of PI3Kalpha (unknown origin) by ADP-Glo luminescent kinase assay
Phosphatidylinositol 4,5-bisphosphate 3-kinase catalytic subunit alpha isoform, sequence (P42336 whole entry, canonical isoform): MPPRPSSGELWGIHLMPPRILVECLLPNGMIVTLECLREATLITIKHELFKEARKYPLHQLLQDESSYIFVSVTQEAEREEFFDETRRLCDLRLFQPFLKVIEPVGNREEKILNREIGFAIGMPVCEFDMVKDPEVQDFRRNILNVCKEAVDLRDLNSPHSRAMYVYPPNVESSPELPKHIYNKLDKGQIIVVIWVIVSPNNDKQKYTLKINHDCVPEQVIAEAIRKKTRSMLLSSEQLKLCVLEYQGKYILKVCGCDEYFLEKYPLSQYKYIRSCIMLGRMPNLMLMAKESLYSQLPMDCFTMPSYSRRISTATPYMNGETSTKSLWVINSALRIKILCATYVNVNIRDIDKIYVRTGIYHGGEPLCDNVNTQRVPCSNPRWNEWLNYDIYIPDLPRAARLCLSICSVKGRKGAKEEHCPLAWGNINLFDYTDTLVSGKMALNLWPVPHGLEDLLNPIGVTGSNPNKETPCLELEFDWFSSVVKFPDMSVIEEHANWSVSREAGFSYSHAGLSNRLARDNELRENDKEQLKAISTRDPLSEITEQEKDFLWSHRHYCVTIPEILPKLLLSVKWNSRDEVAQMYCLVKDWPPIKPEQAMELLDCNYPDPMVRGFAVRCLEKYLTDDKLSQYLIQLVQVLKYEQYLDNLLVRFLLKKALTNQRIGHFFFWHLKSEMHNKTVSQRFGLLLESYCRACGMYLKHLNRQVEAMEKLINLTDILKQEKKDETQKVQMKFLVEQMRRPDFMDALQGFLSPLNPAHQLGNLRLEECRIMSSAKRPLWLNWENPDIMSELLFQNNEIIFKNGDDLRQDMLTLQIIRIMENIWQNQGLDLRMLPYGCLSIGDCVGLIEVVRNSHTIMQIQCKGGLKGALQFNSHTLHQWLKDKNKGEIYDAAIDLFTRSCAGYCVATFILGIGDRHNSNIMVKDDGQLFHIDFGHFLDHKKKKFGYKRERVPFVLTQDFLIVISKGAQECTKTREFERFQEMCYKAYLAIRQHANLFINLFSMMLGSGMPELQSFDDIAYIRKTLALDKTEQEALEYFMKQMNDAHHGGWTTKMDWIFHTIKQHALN

[2] = target: Phosphatidylinositol 4,5-bisphosphate 3-kinase catalytic subunit beta isoform (Homo sapiens, UniProt P42338); assay: Inhibition of PI3Kbeta (unknown origin) by ADP-Glo luminescent kinase assay
Phosphatidylinositol 4,5-bisphosphate 3-kinase catalytic subunit beta isoform, sequence (P42338 whole entry, canonical isoform): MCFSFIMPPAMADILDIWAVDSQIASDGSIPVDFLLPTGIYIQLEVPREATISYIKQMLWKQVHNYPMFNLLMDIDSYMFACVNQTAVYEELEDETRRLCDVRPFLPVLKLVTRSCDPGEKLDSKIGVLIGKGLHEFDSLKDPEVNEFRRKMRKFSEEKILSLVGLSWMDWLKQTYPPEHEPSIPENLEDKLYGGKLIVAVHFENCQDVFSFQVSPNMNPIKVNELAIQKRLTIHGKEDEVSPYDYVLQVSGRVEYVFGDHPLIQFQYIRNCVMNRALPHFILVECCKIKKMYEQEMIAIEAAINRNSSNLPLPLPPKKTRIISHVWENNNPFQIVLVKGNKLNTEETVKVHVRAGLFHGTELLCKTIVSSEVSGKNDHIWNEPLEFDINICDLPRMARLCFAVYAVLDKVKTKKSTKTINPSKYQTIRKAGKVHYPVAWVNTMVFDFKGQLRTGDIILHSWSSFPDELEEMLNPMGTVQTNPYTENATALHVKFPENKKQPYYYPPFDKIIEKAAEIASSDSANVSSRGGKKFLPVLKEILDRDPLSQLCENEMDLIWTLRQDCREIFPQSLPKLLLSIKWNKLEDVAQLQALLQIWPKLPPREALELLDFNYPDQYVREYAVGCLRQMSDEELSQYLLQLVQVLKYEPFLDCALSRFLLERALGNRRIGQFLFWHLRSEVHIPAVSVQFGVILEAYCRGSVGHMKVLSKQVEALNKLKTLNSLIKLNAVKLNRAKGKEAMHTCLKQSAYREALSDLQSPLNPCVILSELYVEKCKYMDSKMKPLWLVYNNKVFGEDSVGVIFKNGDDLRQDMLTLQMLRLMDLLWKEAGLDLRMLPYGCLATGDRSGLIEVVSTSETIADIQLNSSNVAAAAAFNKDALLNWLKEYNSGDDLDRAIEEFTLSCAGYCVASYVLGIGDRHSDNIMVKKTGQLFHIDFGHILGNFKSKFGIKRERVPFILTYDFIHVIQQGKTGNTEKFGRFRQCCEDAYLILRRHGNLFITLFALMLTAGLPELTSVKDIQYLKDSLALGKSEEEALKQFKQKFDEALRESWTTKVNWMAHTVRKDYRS

[3] = target: T1, Phosphatidylinositol 4,5-bisphosphate 3-kinase catalytic subunit delta isoform (Homo sapiens, UniProt O00329); assay: Inhibition of PI3Kdelta (unknown origin) by ADP-Glo luminescent kinase assay
T1 sequence (O00329 whole entry): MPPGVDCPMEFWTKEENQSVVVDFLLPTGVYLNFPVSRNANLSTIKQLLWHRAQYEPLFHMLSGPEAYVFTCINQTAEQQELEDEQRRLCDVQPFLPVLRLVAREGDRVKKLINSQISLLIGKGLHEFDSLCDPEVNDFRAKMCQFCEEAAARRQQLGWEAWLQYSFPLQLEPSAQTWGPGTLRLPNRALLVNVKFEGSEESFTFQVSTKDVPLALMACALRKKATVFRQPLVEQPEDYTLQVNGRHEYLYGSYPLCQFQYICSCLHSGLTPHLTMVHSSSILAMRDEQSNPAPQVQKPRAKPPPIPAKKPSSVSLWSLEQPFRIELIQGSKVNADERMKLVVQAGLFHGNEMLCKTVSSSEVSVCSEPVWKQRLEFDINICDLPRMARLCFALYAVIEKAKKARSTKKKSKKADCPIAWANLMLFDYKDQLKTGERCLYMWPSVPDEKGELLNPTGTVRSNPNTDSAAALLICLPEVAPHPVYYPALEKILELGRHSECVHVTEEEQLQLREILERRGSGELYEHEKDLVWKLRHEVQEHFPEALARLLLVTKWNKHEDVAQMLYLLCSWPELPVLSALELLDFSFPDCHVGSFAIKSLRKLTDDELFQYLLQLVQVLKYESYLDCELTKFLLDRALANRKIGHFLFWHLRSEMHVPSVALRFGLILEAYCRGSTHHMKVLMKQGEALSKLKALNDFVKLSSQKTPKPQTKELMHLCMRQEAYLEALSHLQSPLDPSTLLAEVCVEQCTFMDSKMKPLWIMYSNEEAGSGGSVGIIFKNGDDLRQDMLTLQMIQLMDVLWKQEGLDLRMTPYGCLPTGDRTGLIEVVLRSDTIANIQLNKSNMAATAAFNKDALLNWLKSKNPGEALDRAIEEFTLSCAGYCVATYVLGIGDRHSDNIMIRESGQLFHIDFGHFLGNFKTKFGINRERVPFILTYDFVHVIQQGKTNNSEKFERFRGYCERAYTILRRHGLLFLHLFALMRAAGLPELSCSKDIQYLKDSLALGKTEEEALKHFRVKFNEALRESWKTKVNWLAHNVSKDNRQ

[4] = target: Phosphatidylinositol 4,5-bisphosphate 3-kinase catalytic subunit gamma isoform (Homo sapiens, UniProt P48736); assay: Inhibition of PI3Kgamma (unknown origin) by ADP-Glo luminescent kinase assay
Phosphatidylinositol 4,5-bisphosphate 3-kinase catalytic subunit gamma isoform, sequence (P48736 whole entry, canonical isoform): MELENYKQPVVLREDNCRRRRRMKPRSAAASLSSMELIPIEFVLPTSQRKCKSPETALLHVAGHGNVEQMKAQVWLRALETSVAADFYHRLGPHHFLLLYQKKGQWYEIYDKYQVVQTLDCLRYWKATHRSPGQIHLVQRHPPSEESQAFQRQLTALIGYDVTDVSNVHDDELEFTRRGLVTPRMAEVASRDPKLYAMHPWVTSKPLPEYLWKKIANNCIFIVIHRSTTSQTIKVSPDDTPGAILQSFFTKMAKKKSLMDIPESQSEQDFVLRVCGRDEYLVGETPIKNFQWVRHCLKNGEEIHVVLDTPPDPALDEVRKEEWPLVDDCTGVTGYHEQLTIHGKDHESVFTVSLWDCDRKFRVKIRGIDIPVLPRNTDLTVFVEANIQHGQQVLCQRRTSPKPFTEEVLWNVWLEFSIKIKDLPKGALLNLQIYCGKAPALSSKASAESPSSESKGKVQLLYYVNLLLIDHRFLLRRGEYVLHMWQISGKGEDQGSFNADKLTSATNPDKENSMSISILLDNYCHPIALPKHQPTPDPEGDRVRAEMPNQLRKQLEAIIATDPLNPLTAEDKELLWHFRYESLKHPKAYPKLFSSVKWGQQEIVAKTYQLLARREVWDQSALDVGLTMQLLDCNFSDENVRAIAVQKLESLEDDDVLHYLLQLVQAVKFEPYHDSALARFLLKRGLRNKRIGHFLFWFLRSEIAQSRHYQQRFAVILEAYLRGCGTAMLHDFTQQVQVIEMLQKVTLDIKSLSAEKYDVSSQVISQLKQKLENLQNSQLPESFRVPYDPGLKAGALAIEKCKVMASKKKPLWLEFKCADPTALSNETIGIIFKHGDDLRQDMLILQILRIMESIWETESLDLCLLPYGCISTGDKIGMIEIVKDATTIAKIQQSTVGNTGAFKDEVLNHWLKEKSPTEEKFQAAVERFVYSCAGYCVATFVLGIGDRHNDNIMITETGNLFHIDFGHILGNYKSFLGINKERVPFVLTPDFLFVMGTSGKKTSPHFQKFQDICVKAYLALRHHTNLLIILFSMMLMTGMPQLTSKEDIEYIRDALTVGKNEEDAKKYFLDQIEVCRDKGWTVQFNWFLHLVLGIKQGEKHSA

MCF7 [5] = assay: Antiproliferative activity against human MCF7 cells assessed as reduction in cell viability incubated for 24 to 48 hrs by CCK-8 assay; assay type: functional, cell-based
HCT-116 [6] = assay: Antiproliferative activity against human HCT-116 cells assessed as reduction in cell viability incubated for 24 to 48 hrs by CCK-8 assay; assay type: functional, cell-based
MDA-MB-231 = assay: Antiproliferative activity against human MDA-MB-231 cells assessed as reduction in cell viability incubated for 24 to 48 hrs by CCK-8 assay; assay type: functional, cell-based
SW-620 = assay: Antiproliferative activity against human SW-620 cells assessed as reduction in cell viability incubated for 24 to 48 hrs by CCK-8 assay; assay type: functional, cell-based
MCF7 [7] = assay: Antiproliferative activity against human MCF7 cells expressing PIK3CA with E545K mutation assessed as reduction in cell viability incubated for 24 to 48 hrs by CCK-8 assay; assay type: functional, cell-based
HCT-116 [8] = assay: Antiproliferative activity against human HCT-116 cells expressing PIK3CA with H1047R mutation assessed as reduction in cell viability incubated for 24 to 48 hrs by CCK-8 assay; assay type: functional, cell-based
[9] = Cytotoxicity against human MCF-10A cells assessed as reduction in cell viability incubated for 24 to 48 hrs by CCK-8 assay; assay type: toxicity, cell-based
[10] = Cytotoxicity against human NCM460 cells assessed as reduction in cell viability incubated for 24 to 48 hrs by CCK-8 assay; assay type: toxicity, cell-based
[11] = Metabolic stability in Sprague-Dawley rat liver microsomes assessed as compound remaining at 5 ug/ml incubated for 1 hr in presence of NADPH by LC-MS/MS analysis; assay type: ADME, Microsome; conditions: at 5 µg/mL, read-out: Stability
[12] = Metabolic stability in Sprague-Dawley rat liver microsomes assessed as half life at 5 ug/ml incubated for 1 hr in presence of NADPH by LC-MS/MS analysis; assay type: ADME, Microsome; conditions: dose 5 µg/ml
[13] = Metabolic stability in Sprague-Dawley rat liver microsomes assessed as intrinsic clearance at 5 ug/ml incubated for 1 hr in presence of NADPH by LC-MS/MS analysis; assay type: ADME, Microsome; conditions: dose 5 µg/ml
Cytochrome P450 1A2 = Cytochrome P450 1A2 (Homo sapiens, UniProt P05177); assay: Inhibition of CYP1A2 in human liver microsomes using phenacetin as substrate pre-incubated for 30 mins followed by substrate addition and measured after 15 mins in presence of NADPH by LC/MS analysis; assay type: ADME, Microsome
Cytochrome P450 2C9 = Cytochrome P450 2C9 (Homo sapiens, UniProt P11712); assay: Inhibition of CYP2C9 in human liver microsomes using tolbutamide as substrate pre-incubated for 30 mins followed by substrate addition and measured after 15 mins in presence of NADPH by LC/MS analysis; assay type: ADME, Microsome
Cytochrome P450 2C19 = Cytochrome P450 2C19 (Homo sapiens, UniProt P33261); assay: Inhibition of CYP2C19 in human liver microsomes using omeprazole as substrate pre-incubated for 30 mins followed by substrate addition and measured after 15 mins in presence of NADPH by LC/MS analysis; assay type: ADME, Microsome
Cytochrome P450 2C19, sequence (P33261 whole entry): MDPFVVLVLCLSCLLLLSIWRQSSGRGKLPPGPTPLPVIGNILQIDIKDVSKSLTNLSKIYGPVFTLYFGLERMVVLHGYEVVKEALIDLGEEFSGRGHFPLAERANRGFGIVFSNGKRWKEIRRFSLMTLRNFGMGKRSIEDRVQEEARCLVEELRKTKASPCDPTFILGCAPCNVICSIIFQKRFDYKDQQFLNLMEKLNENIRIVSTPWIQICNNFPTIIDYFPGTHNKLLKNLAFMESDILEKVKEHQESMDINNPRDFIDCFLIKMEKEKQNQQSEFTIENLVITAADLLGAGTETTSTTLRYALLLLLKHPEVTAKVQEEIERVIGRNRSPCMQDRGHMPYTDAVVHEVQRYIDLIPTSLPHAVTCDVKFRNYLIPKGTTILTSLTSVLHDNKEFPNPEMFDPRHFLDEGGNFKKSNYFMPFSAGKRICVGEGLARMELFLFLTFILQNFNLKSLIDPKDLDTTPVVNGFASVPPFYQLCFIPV

Cytochrome P450 2D6 = Cytochrome P450 2D6 (Homo sapiens, UniProt P10635); assay: Inhibition of CYP2D6 in human liver microsomes using dextromethorphan as substrate pre-incubated for 30 mins followed by substrate addition and measured after 15 mins in presence of NADPH by LC/MS analysis; assay type: ADME, Microsome
Cytochrome P450 2D6, sequence (P10635 whole entry): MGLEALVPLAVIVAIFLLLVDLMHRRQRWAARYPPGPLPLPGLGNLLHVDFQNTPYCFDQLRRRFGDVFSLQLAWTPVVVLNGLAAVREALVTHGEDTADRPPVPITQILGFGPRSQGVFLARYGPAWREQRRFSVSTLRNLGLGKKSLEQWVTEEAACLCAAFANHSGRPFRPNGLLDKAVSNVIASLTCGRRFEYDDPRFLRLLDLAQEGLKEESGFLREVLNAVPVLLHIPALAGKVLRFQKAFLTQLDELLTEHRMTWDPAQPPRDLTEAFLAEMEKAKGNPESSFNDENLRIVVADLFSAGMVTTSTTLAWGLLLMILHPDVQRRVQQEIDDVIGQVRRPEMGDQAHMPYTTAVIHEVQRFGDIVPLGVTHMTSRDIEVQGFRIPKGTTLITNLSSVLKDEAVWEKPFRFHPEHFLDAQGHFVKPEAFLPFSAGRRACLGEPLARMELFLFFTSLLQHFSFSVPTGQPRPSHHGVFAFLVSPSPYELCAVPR

Cytochrome P450 3A4 = Cytochrome P450 3A4 (Homo sapiens, UniProt P08684); assay: Inhibition of CYP3A4 in human liver microsomes using midazolam as substrate pre-incubated for 30 mins followed by substrate addition and measured after 15 mins in presence of NADPH by LC/MS analysis; assay type: ADME, Microsome
Cytochrome P450 3A4, sequence (P08684 whole entry): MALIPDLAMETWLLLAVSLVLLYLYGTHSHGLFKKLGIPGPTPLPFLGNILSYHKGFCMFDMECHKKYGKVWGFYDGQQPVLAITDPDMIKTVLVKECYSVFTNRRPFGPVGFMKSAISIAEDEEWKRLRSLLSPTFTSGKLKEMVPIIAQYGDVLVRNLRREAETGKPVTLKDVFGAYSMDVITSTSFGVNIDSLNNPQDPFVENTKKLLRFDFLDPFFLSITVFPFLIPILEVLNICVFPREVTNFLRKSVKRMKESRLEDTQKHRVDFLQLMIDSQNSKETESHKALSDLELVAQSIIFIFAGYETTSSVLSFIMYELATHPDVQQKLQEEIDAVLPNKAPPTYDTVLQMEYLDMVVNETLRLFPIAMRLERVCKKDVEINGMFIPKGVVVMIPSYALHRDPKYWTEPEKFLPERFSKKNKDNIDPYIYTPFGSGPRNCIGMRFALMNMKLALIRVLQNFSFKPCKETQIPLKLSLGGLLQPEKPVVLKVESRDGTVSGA

[14] = AUC (0 to t) in Sprague-Dawley rat at 5 mg/kg, iv measured upto 24 hrs by LC-MS analysis; assay type: ADME, organism-based; conditions: in vivo
[15] = AUC (0 to infinity) in Sprague-Dawley rat at 5 mg/kg, iv measured upto 24 hrs by LC-MS analysis; assay type: ADME, organism-based; conditions: in vivo
[16] = MRT (0 to t) in Sprague-Dawley rat at 5 mg/kg, iv measured upto 24 hrs by LC-MS analysis; assay type: ADME, organism-based; conditions: in vivo
[17] = MRT (0 to infinity) in Sprague-Dawley rat at 5 mg/kg, iv measured upto 24 hrs by LC-MS analysis; assay type: ADME, organism-based; conditions: in vivo
[18] = Half life in Sprague-Dawley rat at 5 mg/kg, iv measured upto 24 hrs by LC-MS analysis; assay type: ADME, organism-based; conditions: in vivo
[19] = Clearance in Sprague-Dawley rat at 5 mg/kg, iv measured upto 24 hrs by LC-MS analysis; assay type: ADME, organism-based; conditions: in vivo
[20] = Volume of distribution in Sprague-Dawley rat at 5 mg/kg, iv measured upto 24 hrs by LC-MS analysis; assay type: ADME, organism-based; conditions: in vivo
[21] = Cmax in Sprague-Dawley rat at 5 mg/kg, iv measured upto 24 hrs by LC-MS analysis; assay type: ADME, organism-based; conditions: in vivo
HCT-116 [22] = assay: Antiproliferative activity against human HCT-116 cells assessed as reduction in cell viability incubated for 48 hrs by CCK-8 assay; assay type: functional, cell-based; conditions: dose 20-80 µM
HCT-116 [23] = assay: Antiproliferative activity against human HCT-116 cells assessed as inhibition of colony formation at 6 uM incubated for 48 hrs by crystal violet staining based assay; assay type: functional, cell-based
HCT-116 [24] = assay: Induction of apoptosis in human HCT-116 cells assessed as increased total apoptotic cells at 6 uM incubated for 48 hrs by Annexin V-FITC and propidium iodide staining based flow cytometry analysis (reference value: 4.22 %); assay type: functional
[25] = Metabolic stability in Sprague-Dawley rat plasma assessed as compound remaining measured upto 3 hrs by LC-MS/MS analysis; assay type: ADME, cell-free
[26] = Metabolic stability in artificial gastrointestinal fluid assessed as compound remaining measured upto 8 hrs by LC-MS/MS analysis; assay type: ADME

## Nc1nc2cc(-c3ccc4ncc(C(=O)N5CCOCC5)n4c3)ccc2o1 [SERABELISIB]
[1]
  IC50: 0.011 µM
[2]
  IC50: 0.594 µM
[3]
  IC50: 0.328 µM
[4]
  IC50: 0.402 µM
MCF7 [5]
  IC50: 0.64 µM
HCT-116 [6]
  IC50: 5.8 µM
MDA-MB-231
  IC50: 15.8 µM
SW-620
  IC50: 9.99 µM
MCF7 [7]
  IC50: 3.76 µM
HCT-116 [8]
  IC50: 14.1 µM
[9]
  IC50: 34.1 µM
[10]
  IC50: 29 µM
[11]
  remaining at 1 h, 5 ug/ml: 86.2%
[12]
  half-life at 5 ug/ml: 4.44 h
[13]
  CLH: 5 µL/min/mg
Cytochrome P450 1A2
  IC50: > 10 µM
Cytochrome P450 2C9
  IC50: > 10 µM
Cytochrome P450 2C19
  IC50: > 10 µM
Cytochrome P450 2D6
  IC50: > 10 µM
Cytochrome P450 3A4
  IC50: > 10 µM
[14]
  AUC(0-t) at 24 h: 7120 ng·h/mL
[15]
  AUC(0-inf): 7520 ng·h/mL
[16]
  MRT last at 24 h: 6.5 h
[17]
  MRT inf: 7.9 h
[18]
  half-life: 5.9 h
[19]
  clearance: 11.7 mL/min/kg
[20]
  Vd: 5.6 L/kg
[21]
  Cmax: 1680 ng/mL
HCT-116 [22]
  Activity: Dose-Dependent Effect
HCT-116 [23]
  Activity: Active
HCT-116 [24]
  Activity: 11.68%
[25]
  Stability: Stable
[26]
  Stability: Stable

## C[C@H](NC(=O)c1cnc2ccc(-c3ccc4oc(N)nc4c3)cn12)C(N)=O
[1]
  IC50: 0.0046 µM
[2]
  IC50: 0.818 µM
[3]
  IC50: 0.115 µM
[4]
  IC50: 0.233 µM
MCF7 [5]
  IC50: 1.81 µM
HCT-116 [6]
  IC50: 7.05 µM
MDA-MB-231
  IC50: 20.8 µM
SW-620
  IC50: 11.3 µM

## C[C@H](Nc1ncnc2ccc(-c3ccc4oc(N)nc4c3)cc12)C(N)=O
[1]
  IC50: 0.0185 µM
MCF7 [5]
  IC50: > 100 µM
HCT-116 [6]
  IC50: > 100 µM
MDA-MB-231
  IC50: > 100 µM
SW-620
  IC50: > 100 µM

## Nc1nc2cc(-c3ccc4ncc(C(=O)N5C[C@@H]6OCCO[C@@H]6C5)n4c3)ccc2o1
[1]
  IC50: 0.0072 µM
MCF7 [5]
  IC50: 2.28 µM
HCT-116 [6]
  IC50: 5.31 µM
MDA-MB-231
  IC50: 12.4 µM
SW-620
  IC50: 7.16 µM

## CN(C)C1CCN(C(=O)c2cnc3ccc(-c4ccc5oc(N)nc5c4)cn23)C1 (stereo unspecified)
[1]
  IC50: 0.0108 µM
MCF7 [5]
  IC50: 15.1 µM
HCT-116 [6]
  IC50: 6.05 µM
MDA-MB-231
  IC50: 12.3 µM
SW-620
  IC50: 11 µM

## NC(=O)[C@@H](NC(=O)c1cnc2ccc(-c3ccc4oc(N)nc4c3)cn12)c1ccccc1
[1]
  IC50: 0.014 µM
MCF7 [5]
  IC50: 9.83 µM
HCT-116 [6]
  IC50: 9.39 µM
MDA-MB-231
  IC50: 21 µM
SW-620
  IC50: 17.1 µM

## NC(=O)C(NC(=O)c1cnc2ccc(-c3ccc4oc(N)nc4c3)cn12)c1ccccc1 (stereo unspecified)
[1]
  IC50: 0.0193 µM
MCF7 [5]
  IC50: 16.2 µM
HCT-116 [6]
  IC50: 34 µM
MDA-MB-231
  IC50: > 100 µM
SW-620
  IC50: 37.8 µM

## NC(=O)CNc1cnc2ccc(-c3ccc4oc(N)nc4c3)cc2n1
[1]
  IC50: 0.0038 µM
MCF7 [5]
  IC50: 5.59 µM
HCT-116 [6]
  IC50: 4.56 µM
MDA-MB-231
  IC50: 10.2 µM
SW-620
  IC50: 24.9 µM
